# Measurements from patent publication US20110105434A1, “2-AMINO PURINE DERIVATIVES AND THEIR USE AS ANTI-HERPETIC AGENTS” (priority 2007, published 2011).
# Read-outs that look alike come from different tables or passages of the source.
# How the values were obtained:
# [1] = tested on: patient with nose and brow acne and rosacea; assay: acne and rosacea; format: in vivo, human; details: 300 mg/kg per day
# Method: Additional symptoms relieved by the high doses of anti-herpes drugs involve severe nose and brow acne and rosacea on the chin and lower cheeks. Although the mechanism for these conditions is not understood, they are believed to be of autoimmune origin. Both skin conditions disappeared at 300 mg/kg of famciclovir per day and recurred when the drug was stopped.
# [2] = tested on: patient with reduced renal function; assay: creatinine clearance (renal function) in a patient with autoimmune disease; format: in vivo, human
# Source text: Patients with autoimmune disease often suffer significant inflammation of the kidneys, often causing renal dysfunction and/or destruction, which can lead to death in the absence of dialysis. A clinical laboratory measure of kidney function is creatinine clearance. Creatinine is the metabolic product formed from creatine when food is converted to energy. Creatinine is produced at a steady state and is affected very little by diet or normal physical activities. When a subject's kidneys are damaged and/or cannot function normally, the amount of creatinine excreted in the subject's urine decreases while its level in the blood increases. Thus, the blood level of creatinine indicates how well the kidneys are working. A high level generally means the kidneys are not functioning properly. A creatinine clearance test is performed both on a blood sample taken from the subject's vein and on a sample of urine collected over 24 hours. […] A normal creatinine level is less than 1, and normal CrCl levels are typically >100 mL/min. Dialysis is usually required when CrCl levels fall below about 20 mL/min.
# [3] = tested on: patient with aseptic meningitis; assay: treatment of aseptic meningioencephalitis / aseptic meningitis; format: in vivo, human
# Source text: The inventor thought that the cause of the AME was the patient's herpes infection that had spread internally to the brain and meninges. […] Because the product inserts for the anti-viral products on the market ([…]®) all warned against using increased doses of the product because of the fear of further renal damage, there was reason not to use increased doses beyond those of '114. […] A patient weighing about 100 kg having multiple signs or symptoms of autoimmune disease had been ingesting famciclovir for several years at about 10 g per day taken 4 times daily during a 24 hour period. While the subject's condition was tolerable, they were in a regular state of pain in the joints and had other signs or symptoms discussed below. They experienced significant headache pain, which was diagnosed as aseptic meningitis, which was discovered to be treatable initially using 340 mg of famciclovir per kg body weight. […] The inflammation and pain are therefore thought to be caused by the immune attack on the infected tissues. Within hours of taking the high doses of famciclovir, the patient experienced at least 60% relief of the extremely painful and debilitating symptoms of meningitis. […] The Shalabi, et al. report is discouraging. According to the authors, the disease is self-resolving. Without a double-blind study, it was not possible to detect the contribution of acyclovir to the recovery.
# [4] = tested on: patient with Prinzmetal's angina; assay: Prinzmetal's angina chest pain and blood pressure; format: in vivo, human; details: 300 mg/kg per day
# Method: Another effect of the treatment of this invention was reduction in chest pain. A patient with an autoimmune disease was experiencing severe chest pains or Prinzmetal's angina—a coronary artery spasm and associated cardiac ischemia. After taking high doses of anti-herpes drugs, but no drugs specifically for the heart, the patient reported a marked reduction in the symptoms of Prinzmetal's angina, specifically, 95% reduction in pain at 300 mg/kg of famciclovir per day.
# [5] = tested on: patient with fibromyalgia; assay: fibromyalgia pain; format: in vivo, human; details: 300 mg/kg per day
# Method: Yet another effect was alleviation of fibromyalgia: The pain was reduced by about 95% at 300 mg/kg of famciclovir per day.
# [6] = tested on: patient with reduced renal function; details: on the doses of '114 (maximum 120 mg/kg/day); improved from 29 mL/min; cited from earlier work
# [7] = tested on: patient with urination problems; assay: urination problems (benign prostate hypertrophy symptoms); format: in vivo, human; details: 300 mg/kg per day, taken in 6 hour increments
# Method: The same high doses of famciclovir also relieved urination problems in a patient, such as hesitancy, weak stream and retention. These signs or symptoms are usually associated with benign prostate hypertrophy. However, without taking any prostate-specific drugs, but famciclovir alone, the patient achieved substantial relief of these symptoms. The signs or symptoms disappeared or were at least 90% relieved at 300 mg/kg of famciclovir per day, taken in 6 hour increments. The symptoms returned in about 10 hours when the drug was taken every 10 hours instead of every six hours. When the drug was taken every 6 hours, the symptoms, once again, disappeared.
# [8] = body pH of 7.4; cited from earlier work
# [9] = tested on: herpes-infected patient with kyphosis; assay: kyphosis; format: in vivo, human; details: 300 mg/kg per day
# Method: Another condition observed in a herpes-infected patient was kyphosis or abnormal curvature of the upper spine. Generally, kyphosis is thought to result from habitual poor posture. However, kyphosis is sometimes caused by abnormal contraction of some spinal muscles. When the patient received 300 mg/kg of famciclovir per day, their posture improved as the contracted spinal muscles relaxed.
# [10] = approved oral dose range; cited from earlier work
smiles,measurement,setting,value
"CC(=O)OCC(CCn1cnc2cnc(N)nc21)COC(C)=O [famciclovir, 2-amino-9-(4-acetoxy-3-acetoxymethylbut-1-yl)purine]","skin conditions (acne, rosacea)",[1],disappeared
same,creatinine clearance level,"[2]; dose increased from '114 level to levels of this application, from 89 mL/min, 100 kg man",143 mL/min
same,impaired kidney function,[2]; more than 250 mg/kg of body weight per day,significant improvement
same,unremitting severe symptoms of aseptic meningitis,"[3]; 340 mg/kg per day, maintained at 300 mg/kg/day",quickly dispersed
same,relief of symptoms of meningitis,"[3]; 340 mg/kg, within hours of taking",at least 60%
same,treating the AME,[3]; maximum dose of 120 mg/kg body weight as taught in '114,ineffective
same,acute pain and the AME,"[3]; more than 250, e.g. 340 to 400 mg/kg/day",completely stopped
same,reduction in pain of Prinzmetal's angina,[4],95%
same,elevated blood pressure,[4]; blood pressure lowering medication reduced to a minimum,no hypertension
same,fibromyalgia pain reduced,[5],about 95%
same,creatinine clearance level,[6],89 mL/min
same,"urination signs or symptoms (hesitancy, weak stream, retention) relieved",[7],at least 90%
same,water solubility compared with other representative compounds such as acyclovir,[8],more water soluble
same,posture in kyphosis,[9],improved
same,absorption (dose linearity),[10],linear
